Laboratory results reported in patent publication US11872200B2, “GABA agonists in the treatment of disorders associated with metabolic syndrome and GABA combinations in treatment or prophylaxis of type I diabetes” (The Regents of the University of California, priority 2010, dated 2024).

Assays:
[1] = tested on: β-cells; experiment: STZ oxidative-stress induced β-cell apoptosis, pancreas sections co-stained with TUNNEL and anti-insulin; format: in vivo, C57Bl/6 mice; settings: for relative area of insulin+ cells to the total area of the islets: 48 hours after STZ (FIG. 10C); for STZ mediated oxidative-stress-induced apoptosis: 48 hours after STZ, N=4 mice/group (FIG. 10A)
Procedure: C57Bl/6 mice received a moderate dose of STZ and then given plain water (control), water+GABA, or water+baclofen (a GABAB-R agonist). 48 hours later their pancreas were removed and sections co-stained with TUNNEL and anti-insulin.
N=4 mice/group, at least 100 islets analyzed per group.

[2] = tested on: Treg responses; experiment: In vitro culture system with IL-2 and anti-CD3; format: cell-based; settings: preliminary data; IL-2 and anti-CD3 in an in vitro culture system
Source text: It is noted that the GABA treatment can both suppress autoimmune responses by working on GABA-A receptors on immune cells, and promote B-cell survival through their GABA-B receptors.

[3] = tested on: syngenic islet grafts in diabetic NOD mice; experiment: Syngenic islet graft survival in diabetic NOD mice; format: in vivo; settings: diabetic NOD mice treated 28 days, then NOD.scid islets under kidney capsule; 10 week observation period (FIG. 8)
Source text: Mice were given insulin as needed. After 28 days the mice received NOD.scid islets under their kidney capsule and insulin treatment was discontinued. Data shown are individual mouse blood glucose levels post-transplantation (FIG. 8A-8D). […] Dashed line indicates blood glucose of 250 mgs/dL.

[4] = tested on: newly diabetic NOD mice; experiment: Reversal of hyperglycemia in newly diabetic NOD mice; format: in vivo; settings: GABA 6 mgs/ml in drinking water, GAD/alum 100 μg sc on day 1 and 14 (FIG. 9)
Procedure: Mice were considered diabetic after two blood glucose>250 mgs/dL. […] Data shown are blood glucose levels in individual mice given no treatment (FIG. 9A), GABA alone (6 mgs/ml in drinking water) (FIG. 9B), or GABA+GAD/alum (100 μg sc on day 1 and 14) (FIG. 9C).

[5] = tested on: HFD-fed mice; experiment: GABA in drinking water of high fat diet (HFD) fed mice; format: in vivo
Procedure: Mice were fed high fat diet (HFD) or “western diet” causing them to gain weight, become obese, and develop glucose intolerance, insulin resistance, and metabolic syndrome. The mice were provided either normal water, or water that contained GABA (6 mg/ml). The weight, food intake, water intake, glucose tolerance, insulin sensitivity and blood glucose levels of the mice was monitored over 5 months.

NCC(CC(=O)O)c1ccc(Cl)cc1 (racemic) [baclofen, (RS)-4-amino-3-(4-chlorophenyl)butanoic acid, reference compound]
relative area of insulin+ cells to the total area of the islets [1]: greater β-cell area, but this did not reach the level of statistical significance
STZ mediated oxidative-stress-induced apoptosis ([1]; baclofen in water): significantly inhibits

NCCCC(=O)O [GABA, 4-aminobutanoic acid]
Treg responses [2]: can promote Treg responses
time until mice became diabetic again after receiving the graft [3]: about 3 weeks
reversal of hyperglycemia [4]: prolongs a state of modest hyperglycemia for a short period, after which the mice progress to severe hyperglycemia
glucose tolerance ([5]; GABA 6 mg/ml in water (FIG. 3)): improved
insulin sensitivity ([5]; GABA 6 mg/ml in water (FIG. 4)): improved
fasting blood glucose levels ([5]; GABA 6 mg/ml in water (FIG. 5)): reduced
HFD-induced obesity (body weight) ([5]; GABA 6 mg/ml in water (FIG. 6)): mitigated
infiltration of macrophages into white adipose tissue ([5]; GABA 6 mg/ml in water (FIG. 7, top panel)): inhibited
mass of adipocytes ([5]; GABA 6 mg/ml in water (FIG. 7 bottom panel)): significantly reduced
insulin-expressing cells per 100 islet cells ([1]; 48 hours after STZ (FIG. 10B)): preserving insulin-expressing β-cell s
relative area of insulin+ cells to the total area of the islets [1]: preserve the area of insulin producing β-cells
STZ mediated oxidative-stress-induced apoptosis ([1]; GABA 2 mg/ml in water): significantly inhibits
STZ mediated oxidative-stress-induced apoptosis ([1]; GABA 6 mgs/ml in water): significantly inhibits

GAD/alum: glutamic acid decarboxylase (GAD) β-cell antigen vaccine given with alum adjuvant
time until mice became diabetic again after receiving the graft [3]: about 3 weeks
reversal of hyperglycemia [4]: cannot reverse hyperglycemia

insulin B-chain: β-cell antigen used as antigen-based therapy
reversal of hyperglycemia [4]: cannot reverse hyperglycemia
